Ee % data for one compound are collected here from patent US12172959B2, “Mono- or di-substituted indole derivatives as dengue viral replication inhibitors” (priority 2015, dated 2024).

Molecules are shown by their SMILES.

A short description of this data set: Chiral stability at pH 7.4 (enantiomeric excess by Chiral SFC after incubation). To be noted: 5 μM. The format is physicochemical. Here is the method:
The chiral stability of Enantiomer 1A (R=OMe) was evaluated by determination of the enantiomeric excess (ee %) after incubation for 24 h and 48 h in a buffered solution at pH 7.4 at 40° C. and 60° C. To assess the influence of the methoxy-substituent of Enantiomer 1A (R=OMe) on the stability against racemization, the chiral stability of Enantiomer 1′A (R=H) was tested under the same conditions. To this end, 5 μM buffered (pH=7.4) solutions of 1A and 1′A were prepared by mixing 25 μL of a 100 μM solution of 1A or 1′A in DMSO with 475 μL aqueous buffer pH 7.4. Samples were taken 24 h and 48 h after incubation at 40° C. and 60° C. The analytical samples were analyzed by Chiral SFC (MS detection) and the chiral purity was expressed as the enantiomeric excess (ee %=% enantiomer A−% enantiomer B).

On to `COc1cc(NC(C(=O)c2c[nH]c3cc(F)ccc23)c2ccc(Cl)cc2OC)cc(S(C)(=O)=O)c1` (single isomer, unassigned) [Compound 1A, 2-(4-chloro-2-methoxyphenyl)-1-(6-fluoro-1H-indol-3-yl)-2-((3-methoxy-5-(methylsulfonyl)phenyl)amino)ethanone], for which the ee % reads like this: (buffered solution pH 7.4, 40° C., 24 h) 100%; (buffered solution pH 7.4, 40° C., 48 h) 100%; (buffered solution pH 7.4, 60° C., 24 h) 95%; (buffered solution pH 7.4, 60° C., 48 h) 88%.
